Test results published in EP0618796B1 (priority 1991, dated 1993).

How the values were obtained:
RAT MAST CELL = test: Inhibition of rat mast cell degranulation in vitro (histamine release); type: cell-based, rats; settings: ID20 = inhibitory dose causing 20% inhibition, mast cells stimulated in vitro
Source text: First, mast cells from rats (peritoneal cavity) or humans (chronic peritoneal dialysis fluid) are purified; otherwise, rat basophilic leukemia (RBL) cells are kept in culture. Any of these mast cells are then exposed to various concentrations of inhibitory compounds to allow binding of the inhibitor to the receptor sites before testing their efficacy with respect to inhibition of mast cell degranulation. They are then used as such or washed free of unbound drug before exposure to stimuli known to induce degranulation. Compounds which are inhibitory prevent the stimulus from causing degranulation by binding to specific receptors or inactivating a crucial step in the degranulation process.
The mast cell degranulation blocking agent is administered in a pharmaceutically effective amount. The dosage range for pharmaceutical effectiveness can be determined by reference to standard laboratory tests for inhibition of mast cell degranulation and by the dosages used for such agents in other conditions. The pharmaceutically effective dose of the mast cell degranulation blocking agent can be approximated by its ID20, which is defined as the dose necessary to cause 20% inhibition in mast cells when applied to mast cells stimulated in vitro. The ID20 of selected inhibitors of the anti-histamine category is as follows: Table 2

[1] = administered individually, without analgesic; cited from earlier work
Rat Mesentery Mast Cells = settings: ED20 = effective dose causing 20% secretion; antihistamines which cause mast cell degranulation; cited from earlier work
[2] = intramuscular administration during severe migraine; hydroxyzine 50 mg; compared with placebo; cited from earlier work

| SMILES | IC20 (RAT MAST CELL) [µM] | ED20 for Histamine Release (Rat Mesentery Mast Cells) | also measured |
| --- | --- | --- | --- |
| CN1CCC(=C2c3ccccc3CCc3cccnc32)CC1 [Azatadine] | 0.1 | – | – |
| CC(C)(C)c1ccc(CN2CCN(C(c3ccccc3)c3ccc(Cl)cc3)CC2)cc1 (stereo not shown) [Buclizine, buclizine] | – | – | effectiveness against migraine [1]: ineffective |
| CN(C)CCC(c1ccc(Cl)cc1)c1ccccn1 (stereo not shown) [Clorphenyramine] | – | 10^-3 M | – |
| CN1CCN(C(c2ccccc2)c2ccccc2)CC1 [Cyclizine] | – | 0.0005 M | – |
| CN1CCC(=C2c3ccccc3C=Cc3ccccc32)CC1 [Cyproheptadine] | 5 | – | – |
| CN(C)CCOC(c1ccccc1)c1ccccc1 [Diphenhydramine] | – | 10^-3 M | – |
| OCCOCCN1CCN(C(c2ccccc2)c2ccc(Cl)cc2)CC1 (stereo not shown) [Hydroxyzine] | 50 | – | effectiveness in the treatment of pain associated with classic migraine [2]: no more effective than a placebo |
| CN1CCC(=C2c3ccccc3CC(=O)c3sccc32)CC1 [Ketotifen] | 10 | – | – |
| O=c1[nH]c2ccccc2n1CCCN1CCN(C(c2ccccc2)c2ccccc2)CC1 [Oxatomide] | 0.1 | – | – |
| CC(CN1c2ccccc2Sc2ccccc21)N(C)C (stereo not shown) [Promethazine] | – | 10^-4 M | – |
| CC(C)(C)c1ccc(C(O)CCCN2CCC(C(O)(c3ccccc3)c3ccccc3)CC2)cc1 (stereo not shown) [Terfenadine] | 5 | – | – |
| Oc1ccc2c3c1O[C@H]1[C@@H](O)CC[C@@]4(O)[C@@H](C2)N(CC2CCC2)CC[C@]314 [nalbuphine] | – | – | effectiveness in the treatment of pain associated with classic migraine [2]: no more effective than a placebo |
